Where “and” joins values, the source holds several entries; their conditions need not be identical. Equal entries are not always repeated.
Assays:
[1] = Biodistribution of free butyrate after oral gavage, ApoE–/– mice on HFD
Experimental: Samples were prepared and derivatized as described previously ([28]). Stock solutions were prepared in water/acetonitrile (ACN) (1:1 v/v): 3-nitrophenylhydrazine (NPH), and 1-ethyl-3-(3-dimethylaminopropyl)carbodiimide (EDC) (in 1% pyridine). The internal standard, 4-methylvaleric acid, was added. Samples were mixed with NPH and EDC stocks at a 1:1:1 volume ratio. The mixture was heated in a heating block at 60°C for 30 minutes. Samples were filtered through 0.22 μm filters and stored at 4°C before analysis.
An Agilent 6460 Triple Quad MS-MS was used to detect the derivatized butyrate. Both derivatized butyrate-NPH and 4-methylvaleric-NPH were detected in negative mode. Column: Thermo Fisher Scientific C18 4.6 × 50 mm, 1.8 μm particle size, at room temperature. Mobile phase A: water with 0.1% v/v formic acid. Mobile phase B: ACN with 0.1% v/v formic acid. Injection volume: 5.0 μL. Flow rate: 0.5 mL/min. Gradient of solvent: 15% mobile phase B at 0.0 minutes; 100% mobile phase B at 3.5 minutes; 100% mobile phase B at 6.0 minutes; 15% mobile phase B at 6.5 minutes. The MS conditions were optimized using pure butyrate-NPH or 4-methylvaleric-NPH at 1 mM. The fragment voltage was set to 135 V, and the collision energy was 18 V. Multiple reaction monitoring (MRM) of 222 → 137 was assigned to butyrate, and MRM of 250 → 137 was assigned to 4-methylvaleric acid as the internal standard. The ratio between MRM of butyrate and 4-methylvaleric acid was used to quantify butyrate concentration.
Three hours after administration, mice were anesthetized under isoflurane, and blood was collected via submandibular vein into EDTA-coated tubes. The tubes were centrifuged, and plasma was collected and frozen at –80°C. […] Organs, including liver, MLNs, ILNs, spleen, lung, heart, aorta, small intestine, and large intestine were collected and then transferred to –80°C until further processing. To extract butyrate from plasma or organs, a 1:1 (v/v) ACN/water solution was used. Plasma was mixed 1:1 with the ACN/water solution and centrifuged to remove denatured proteins. Organs were weighed, transferred to Lysing Matrix D tubes (MP Biomedicals), and combined with the 1:1 v/v ACN/water solution. Samples were then lysed using a FastPrep-24 5G homogenizer (MP Biomedicals) and centrifuged. The supernatants were collected for butyrate measurement by LC-MS/MS. The final butyrate content in each organ was normalized by organ weight.

[2] = Biodistribution of free butyrate in intestinal tissue and contents, C57BL/6 mice; assay type: in vivo
Excerpt: NaBut is limited in its translation by butyrate’s rapid consumption by colonocytes as a primary energy source in the distal gut. We propose that the enhanced biodistribution of free, active butyrate (following cleavage from serine) in SerBut-treated mice is due to small intestinal escape from the gut via amino acid transporters. To probe this hypothesis, we repeated the experiment and analyzed the biodistribution of free active butyrate in distinct sections of the intestinal tissue and the intestinal contents (Figure 2, K and L, and Supplemental Figure 2). Because neither ApoE^–/– nor HFD feeding would be expected to change amino acid receptor expression or function in the intestine, this was performed in C57BL/6 mice on a normal diet. […] We saw no increase in butyrate in the colon tissue (Figure 2P).
Samples were prepared and derivatized as described previously ([28]). […] The internal standard, 4-methylvaleric acid, was added.
Injection volume: 5.0 μL. Flow rate: 0.5 mL/min.

ApoE^–/– mice on an HFD = experiment: Blood chemical analysis of plasma; assay type: in vivo, mouse; parameters: Lipase / ALT / Altherogenic Lipids (Chol-HDL) / HDL-C / LDL-C: unit not given here; settings: for LDL-C as a fraction of total cholesterol: 150 mM in drinking water, HFD; for Altherogenic Lipids (Chol-HDL) / HDL-C / LDL-C: Blood Chemistry, experiments 1 and 2; for Altherogenic Lipids (Chol-HDL) / HDL-C: 6wk; for Altherogenic Lipids (Chol-HDL) / HDL-C / LDL-C / ALT: individual mice; for ALT: 150 mM in drinking water ad libitum with HFD
Experimental: SerBut water was pH adjusted using 10 M NaOH to a final pH of 7.4. […] After 6 weeks, mice were euthanized. […] The liver was harvested and part was homogenized in tissue protein extraction reagent buffer (Invitrogen, 78510) supplemented with protease inhibitor mini tablets (Thermo Fisher Scientific, PIA32955) for Western blotting and qPCR. […] Blood chemical analysis was performed on an Alfa […] Chemistry Analyzer. Reagent kits from Alfa Wasserman were used according to manufacturer's instructions to analyze plasma: lipase (catalog SA1045), HDL-C (catalog SA2038, LDL-C (catalog SA1040), AST (catalog SA1053), ALT (catalog SA1052). A LEGENDPlex was utilized to analyze the concentrations of inflammatory cytokines (BioLegend).

LDL-R = experiment: Western blot of LDL-R in liver; assay type: in vivo, mouse; settings: for LDL-R protein levels in liver: 6 weeks; for LDL-R Relative Expression: western Blot quantifiation, individual mice
Excerpt: SerBut water was pH adjusted using 10 M NaOH to a final pH of 7.4. […] After 6 weeks, mice were euthanized. […] The liver was harvested and part was homogenized in tissue protein extraction reagent buffer (Invitrogen, 78510) supplemented with protease inhibitor mini tablets (Thermo Fisher Scientific, PIA32955) for Western blotting and qPCR.

[3] = C57BL/6, normal chow, 3 hr after single gavage

SMILES	free butyrate, Lower SI Contents [2, 3]	lipase in the plasma (ApoE^–/– mice on an HFD; 6 weeks)	total cholesterol or triglycerides in the plasma (ApoE^–/– mice on an HFD; 6 weeks)	LDL-C as a fraction of total cholesterol (ApoE^–/– mice on an HFD; 6 weeks)	Altherogenic Lipids (Chol-HDL) (ApoE^–/– mice on an HFD)	HDL-C (ApoE^–/– mice on an HFD)	LDL-C (ApoE^–/– mice on an HFD)	ALT (ApoE^–/– mice on an HFD; plasma at 6 weeks)	LDL-R protein levels in liver (LDL-R)	LDL-R Relative Expression (LDL-R)	further results
CCCC(=O)OC[C@H](N)C(=O)O [SerBut, O-butyryl-L-serine]	61.2227 µg/g and 52.7128 µg/g and 33.2508 µg/g and 35.0221 µg/g	no effect	Neither SerBut nor NaBut influenced	significantly reduced	948 and 1048 and 1026 and 1018 and 1032 and 880 and 848 and 784 and 1074 and 722 and 776 and 780 and 800 and 768 and 1080 and 736 and 882	38 and 52 and 46 and 44 and 48 and 54 and 56 and 42	320 and 324 and 382 and 332 and 336 and 378 and 454 and 290 and 460 and 258 and 354 and 282 and 292 and 318 and 416 and 268 and 238	30.92 and 18.78 and 25.96 and 23.5 and 26.22 and 26.76 and 26.18 and 26.36 and 22.68	significantly suppressed	1.543 and 1.468 and 1.422 and 1.743 and 2.24 and 1.846 and 1.092 and 1.104 and 0.9748	free butyrate in liver, ILNs, kidney, spleen, lung and plasma ([1]; 3 hours after gavage): significant increases; free butyrate in the MLNs ([1]; 3 hours after gavage): trending increases; free butyrate in the heart and aorta ([1]; 3 hours after gavage, compared with both NaBut-treated and PBS-treated mice): significantly increased free butyrate; butyrate in the colon tissue ([2]; C57BL/6, normal diet): no increase; free butyrate in the intestinal contents ([2]; C57BL/6, normal diet): no significant changes; free butyrate in upper and lower small intestine and ileum tissue ([2]; compared with both PBS- and NaBut-treated mice): significantly more free, active butyrate; ratio of HDL to total cholesterol (ApoE^–/– mice on an HFD; 6 weeks, compared with NaBut treatment): significantly increased; plasma ALT and AST (ApoE^–/– mice on an HFD; 6 weeks, compared with both water control and NaBut groups): significantly reduced
CCCC(=O)[O-].[Na+] [NaBut, sodium butyrate, reference compound]	41.6523 µg/g and 45.1024 µg/g and 60.4329 µg/g and 68.0864 µg/g	significant increase	Neither SerBut nor NaBut influenced	significantly reduced	872 and 974 and 870 and 998 and 868 and 1098 and 1088 and 922 and 790 and 882	44 and 40 and 42 and 36 and 38	284 and 358 and 282 and 372 and 310 and 334 and 344 and 346 and 348 and 320	35.16 and 44.74 and 39.32 and 26.1 and 40.12 and 26.24 and 30.52 and 29.96 and 35.92 and 47.84	significantly suppressed	0.9947 and 1.813 and 1.671 and 2.327 and 1.487 and 1.248 and 0.7546 and 0.5275 and 1.539 and 2.451	free butyrate, Plasma ([1]; 3 hours after single gavage of 272 mM butyrate): 4.575 µM; free butyrate, Colon Contents [2, 3]: 384.57 µg/g; Lipase (ApoE^–/– mice on an HFD; plasma at 6 weeks, 150 mM in drinking water with HFD): 118 and 92 and 98 and 112 and 94 and 122 and 124 and 106
